Numbers after ± are expanded uncertainties.
Conditions: Crystal; DTA

Going from `CCCCCCCCCCCCCCCC(=O)O` [hexadecanoic acid] to `CCCCCCCCCCCCCCCCCC(=O)O` [octadecanoic acid], the Normal melting temperature rises from 64.07 ± 0.5 °C to 70.83 ± 0.5 °C.

Compared with `CCCCCCCC(=O)O` [octanoic acid], `CCCCCCCCCC(=O)O` [decanoic acid] is higher in Normal melting temperature: 16.48 ± 0.5 °C for the first, 32.31 ± 0.5 °C for the second.

Compared with `CCCCCCCCCCCC(=O)O` [dodecanoic acid], `CCCCCCCCCCCCCC(=O)O` [tetradecanoic acid] is higher in Normal melting temperature: 44.92 ± 0.5 °C for the first, 55.73 ± 0.5 °C for the second.
